Test results published in ChEMBL document CHEMBL1201862, “PubChem BioAssay data set” (2004).
Calls of active or inactive are those of the source.

Experiments:
[1] = biological target: T1, Neuropeptide Y receptor type 2 (Homo sapiens, UniProt P49146); assay type: functional, cell-based;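 also: HEK293 cells expressing the receptor and a CNG channel; stimulus was NPY near EC95 followed by isoproterenol to raise cAMP; antagonist potency measured as restoring cAMP signal that NPY suppresses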
T1 sequence (P49146 whole entry): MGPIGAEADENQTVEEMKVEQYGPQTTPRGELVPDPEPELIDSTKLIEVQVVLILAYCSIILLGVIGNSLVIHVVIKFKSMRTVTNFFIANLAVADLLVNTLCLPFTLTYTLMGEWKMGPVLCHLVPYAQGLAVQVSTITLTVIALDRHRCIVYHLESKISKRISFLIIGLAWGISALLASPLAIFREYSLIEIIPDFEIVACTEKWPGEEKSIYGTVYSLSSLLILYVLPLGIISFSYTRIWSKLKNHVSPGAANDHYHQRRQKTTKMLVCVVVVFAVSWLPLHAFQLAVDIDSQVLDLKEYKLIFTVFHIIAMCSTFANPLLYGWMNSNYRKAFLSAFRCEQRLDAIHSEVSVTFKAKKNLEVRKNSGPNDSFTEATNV

[2] = biological target: T2, Neuropeptide Y receptor type 1 (Homo sapiens, UniProt P25929); assay type: functional;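 also: HEK293 cells with a CNG channel challenged with NPY then isoproterenol; potency as antagonist that reverses NPY suppression of cAMP signal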
T2 sequence (P25929 whole entry): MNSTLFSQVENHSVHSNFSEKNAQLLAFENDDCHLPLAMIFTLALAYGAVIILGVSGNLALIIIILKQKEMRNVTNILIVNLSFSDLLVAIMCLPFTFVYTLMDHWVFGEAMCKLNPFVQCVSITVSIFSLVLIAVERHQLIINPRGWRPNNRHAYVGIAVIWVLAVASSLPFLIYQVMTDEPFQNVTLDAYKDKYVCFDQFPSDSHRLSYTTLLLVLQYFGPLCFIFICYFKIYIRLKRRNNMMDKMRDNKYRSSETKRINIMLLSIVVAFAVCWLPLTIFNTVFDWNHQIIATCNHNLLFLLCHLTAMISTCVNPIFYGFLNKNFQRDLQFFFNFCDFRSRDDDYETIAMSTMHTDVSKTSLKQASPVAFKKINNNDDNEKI

Aspartyl aminopeptidase = biological target: T3, Aspartyl aminopeptidase (Plasmodium falciparum 3D7, UniProt Q8I2J3)
T3 sequence (Q8I2J3 whole entry): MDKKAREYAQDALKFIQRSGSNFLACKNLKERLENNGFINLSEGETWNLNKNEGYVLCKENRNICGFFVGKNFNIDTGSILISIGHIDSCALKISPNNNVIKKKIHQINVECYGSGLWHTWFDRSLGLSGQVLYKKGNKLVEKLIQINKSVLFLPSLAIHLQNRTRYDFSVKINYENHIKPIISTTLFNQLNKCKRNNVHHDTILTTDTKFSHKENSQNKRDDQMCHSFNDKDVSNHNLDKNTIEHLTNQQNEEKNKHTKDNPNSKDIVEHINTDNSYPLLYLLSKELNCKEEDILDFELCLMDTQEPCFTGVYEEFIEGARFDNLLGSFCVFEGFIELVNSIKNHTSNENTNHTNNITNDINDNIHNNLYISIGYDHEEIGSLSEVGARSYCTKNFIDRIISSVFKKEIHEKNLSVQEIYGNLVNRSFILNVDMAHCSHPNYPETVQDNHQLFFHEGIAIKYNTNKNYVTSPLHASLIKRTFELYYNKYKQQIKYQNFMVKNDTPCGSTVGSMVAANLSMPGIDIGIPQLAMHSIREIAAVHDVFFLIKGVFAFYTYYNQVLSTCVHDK

Procathepsin L = Procathepsin L (Homo sapiens, UniProt P07711)
Chain of Procathepsin L (P07711 whole entry): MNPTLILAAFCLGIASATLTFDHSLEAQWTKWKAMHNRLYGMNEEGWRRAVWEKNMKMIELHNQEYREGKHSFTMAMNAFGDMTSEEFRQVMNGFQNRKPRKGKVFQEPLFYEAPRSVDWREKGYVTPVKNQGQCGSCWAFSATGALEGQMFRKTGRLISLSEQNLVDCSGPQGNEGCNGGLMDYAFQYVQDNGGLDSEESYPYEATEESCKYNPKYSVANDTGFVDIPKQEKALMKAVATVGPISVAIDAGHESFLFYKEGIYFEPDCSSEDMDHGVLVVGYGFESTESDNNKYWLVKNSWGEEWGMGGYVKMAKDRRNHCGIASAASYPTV

Protein skinhead-1 = biological target: T4, Protein skinhead-1 (Caenorhabditis elegans, UniProt P34707); assay type: functional
T4 sequence (P34707 whole entry): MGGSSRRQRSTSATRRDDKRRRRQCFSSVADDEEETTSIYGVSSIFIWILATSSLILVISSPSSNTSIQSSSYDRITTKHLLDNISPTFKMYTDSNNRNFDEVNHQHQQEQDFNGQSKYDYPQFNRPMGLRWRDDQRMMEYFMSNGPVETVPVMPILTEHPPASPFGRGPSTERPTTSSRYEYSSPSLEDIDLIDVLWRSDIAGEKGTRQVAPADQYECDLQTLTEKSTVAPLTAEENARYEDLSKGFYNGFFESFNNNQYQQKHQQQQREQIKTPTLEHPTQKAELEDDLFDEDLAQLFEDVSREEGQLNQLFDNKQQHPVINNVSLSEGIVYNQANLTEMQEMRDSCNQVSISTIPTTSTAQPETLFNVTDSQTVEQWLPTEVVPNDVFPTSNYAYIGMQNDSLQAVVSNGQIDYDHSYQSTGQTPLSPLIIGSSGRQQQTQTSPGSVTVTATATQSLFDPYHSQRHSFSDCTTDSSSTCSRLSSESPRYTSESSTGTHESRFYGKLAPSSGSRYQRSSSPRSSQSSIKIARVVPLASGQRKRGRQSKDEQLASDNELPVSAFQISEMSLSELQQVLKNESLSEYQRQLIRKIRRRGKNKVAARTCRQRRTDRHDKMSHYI

Ion channel NompC = Ion channel NompC (Danio rerio, UniProt Q7T1G6); assay: Fluorescence counterscreen assay for TRPML3 agonists: dose response cell-based high-throughput screening assay to identify agonists of the transient receptor potential channel N1 (TRPN1). [Related pubchem assays: 1526, 1424, 1448 ]; assay type: functional
Chain of Ion channel NompC (Q7T1G6 whole entry): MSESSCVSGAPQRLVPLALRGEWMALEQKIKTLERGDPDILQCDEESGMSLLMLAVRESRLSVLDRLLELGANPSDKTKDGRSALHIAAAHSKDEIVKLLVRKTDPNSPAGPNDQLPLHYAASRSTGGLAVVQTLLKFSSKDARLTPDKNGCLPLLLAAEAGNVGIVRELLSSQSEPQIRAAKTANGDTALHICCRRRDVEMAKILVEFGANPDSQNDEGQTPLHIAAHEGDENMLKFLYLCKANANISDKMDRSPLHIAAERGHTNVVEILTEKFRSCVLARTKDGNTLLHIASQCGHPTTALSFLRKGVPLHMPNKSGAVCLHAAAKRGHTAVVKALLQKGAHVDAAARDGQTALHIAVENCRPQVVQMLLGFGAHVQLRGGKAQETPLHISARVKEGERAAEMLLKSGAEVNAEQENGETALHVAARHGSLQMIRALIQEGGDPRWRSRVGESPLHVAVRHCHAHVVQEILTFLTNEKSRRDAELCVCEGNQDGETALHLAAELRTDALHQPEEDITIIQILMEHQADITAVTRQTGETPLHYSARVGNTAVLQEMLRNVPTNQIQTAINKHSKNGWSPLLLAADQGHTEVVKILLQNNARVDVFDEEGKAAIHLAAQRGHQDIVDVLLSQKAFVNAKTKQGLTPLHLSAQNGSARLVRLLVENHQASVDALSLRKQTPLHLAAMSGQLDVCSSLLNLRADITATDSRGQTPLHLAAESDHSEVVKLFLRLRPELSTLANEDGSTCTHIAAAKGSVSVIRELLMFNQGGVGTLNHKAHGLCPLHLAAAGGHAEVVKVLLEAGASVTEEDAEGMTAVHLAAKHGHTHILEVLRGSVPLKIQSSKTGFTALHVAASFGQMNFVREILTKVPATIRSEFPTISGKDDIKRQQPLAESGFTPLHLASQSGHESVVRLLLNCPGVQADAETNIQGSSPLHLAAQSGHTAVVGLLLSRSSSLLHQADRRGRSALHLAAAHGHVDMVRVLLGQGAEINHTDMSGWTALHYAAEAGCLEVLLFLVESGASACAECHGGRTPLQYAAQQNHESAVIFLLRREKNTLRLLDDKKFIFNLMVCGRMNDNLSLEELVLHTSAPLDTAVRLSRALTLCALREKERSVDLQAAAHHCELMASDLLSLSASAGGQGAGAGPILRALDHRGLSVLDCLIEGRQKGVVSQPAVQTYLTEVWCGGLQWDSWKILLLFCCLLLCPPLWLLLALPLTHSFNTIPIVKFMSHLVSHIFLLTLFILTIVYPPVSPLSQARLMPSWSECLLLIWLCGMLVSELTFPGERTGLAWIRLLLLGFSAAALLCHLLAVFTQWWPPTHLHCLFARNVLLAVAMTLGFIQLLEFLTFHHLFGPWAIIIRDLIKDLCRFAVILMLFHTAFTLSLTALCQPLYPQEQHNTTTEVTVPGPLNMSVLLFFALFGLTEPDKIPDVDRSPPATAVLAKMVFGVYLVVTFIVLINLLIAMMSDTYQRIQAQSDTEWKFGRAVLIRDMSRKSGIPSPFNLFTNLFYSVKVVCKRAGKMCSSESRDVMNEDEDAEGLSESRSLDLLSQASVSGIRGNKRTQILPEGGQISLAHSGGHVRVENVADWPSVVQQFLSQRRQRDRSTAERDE

Mucolipin-3 = biological target: T5, Mucolipin-3 (Homo sapiens, UniProt Q8TDD5); assay: Dose response cell-based high-throughput screening assay for agonists of the transient receptor potential channel ML3 (TRPML3). [Related pubchem assays: 1526, 1424, 1448 ]; assay type: functional
T5 sequence (Q8TDD5 whole entry): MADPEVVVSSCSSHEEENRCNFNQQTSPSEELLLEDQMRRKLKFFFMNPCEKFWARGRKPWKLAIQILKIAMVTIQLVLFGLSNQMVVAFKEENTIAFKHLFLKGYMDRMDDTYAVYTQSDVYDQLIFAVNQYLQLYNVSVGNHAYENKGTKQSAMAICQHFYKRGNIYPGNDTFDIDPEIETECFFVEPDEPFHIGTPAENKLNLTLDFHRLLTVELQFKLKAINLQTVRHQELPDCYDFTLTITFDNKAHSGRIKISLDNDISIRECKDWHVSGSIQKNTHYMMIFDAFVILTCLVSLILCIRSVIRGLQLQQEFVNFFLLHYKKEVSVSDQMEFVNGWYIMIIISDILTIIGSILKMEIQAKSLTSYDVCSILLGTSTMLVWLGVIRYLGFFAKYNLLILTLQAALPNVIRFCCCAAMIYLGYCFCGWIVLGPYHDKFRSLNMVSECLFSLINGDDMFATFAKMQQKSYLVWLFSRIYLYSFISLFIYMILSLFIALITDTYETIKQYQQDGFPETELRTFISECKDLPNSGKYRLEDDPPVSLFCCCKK

[3] = Luminescence Cell-Based Dose Response HTS to Identify Activators of Luciferase Translation or Activity in H4 […] Cells. [Related pubchem assays: 1829 (Project Summary), 1814 (Primary HTS)]; assay type: functional
[4] = biological target: T6, Acyl-homoserine lactone acylase PvdQ (Pseudomonas aeruginosa (strain LESB58), UniProt Q9I194); assay: PvdQ acylase enzyme activity blockers – biochemical, fluorescence, plate reader and imaging, cherry-picks, dose response (AID 493231)
T6 sequence (Q9I194 whole entry): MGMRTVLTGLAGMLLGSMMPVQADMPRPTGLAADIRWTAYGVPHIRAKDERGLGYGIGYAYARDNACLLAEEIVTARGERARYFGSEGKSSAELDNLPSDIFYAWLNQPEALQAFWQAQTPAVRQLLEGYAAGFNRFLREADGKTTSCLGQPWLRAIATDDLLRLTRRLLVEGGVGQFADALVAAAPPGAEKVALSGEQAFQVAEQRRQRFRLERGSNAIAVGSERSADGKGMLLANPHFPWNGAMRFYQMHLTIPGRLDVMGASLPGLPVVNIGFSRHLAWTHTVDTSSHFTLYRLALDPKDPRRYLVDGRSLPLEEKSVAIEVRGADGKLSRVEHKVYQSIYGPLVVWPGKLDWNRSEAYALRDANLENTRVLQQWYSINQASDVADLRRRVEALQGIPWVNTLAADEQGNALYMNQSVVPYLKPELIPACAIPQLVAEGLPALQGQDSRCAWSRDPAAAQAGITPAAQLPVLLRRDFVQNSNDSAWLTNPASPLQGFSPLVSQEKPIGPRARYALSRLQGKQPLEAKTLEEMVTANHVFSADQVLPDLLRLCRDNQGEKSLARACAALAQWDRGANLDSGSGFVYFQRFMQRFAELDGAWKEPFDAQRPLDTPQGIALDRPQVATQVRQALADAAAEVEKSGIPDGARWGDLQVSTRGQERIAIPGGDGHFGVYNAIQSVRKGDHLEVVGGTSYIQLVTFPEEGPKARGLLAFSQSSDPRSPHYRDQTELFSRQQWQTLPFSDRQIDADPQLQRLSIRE

H4 = assay: Luminescence Cell-Based Dose Response HTS to Identify Activators of 5'UTR Stem-Loop Driven Prion Protein mRNA Translation in H4 Neuroglioblastoma Cells. [Related pubchem assays: 1829 (Project Summary), 1814 (Primary HTS)]; assay type: functional; conditions: Homo sapiens
[5] = Luminescence Cell-Based Dose Confirmation HTS to Identify Activators of 5'UTR Stem-Loop Driven Alpha-Synuclein mRNA Translation in H4 Neuroglioblastoma Cells. [Related pubchem assays: 1829 (Project Summary), 1814 (Primary HTS)]; assay type: functional
[6] = HEK-293T cell viability reduction – luminescence, B-cell screen hits, cytotoxicity control for BCR NF-kB inhibitor project, dose response (AID 489021); assay type: functional, cell-based;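 also: HEK-293T cells carrying an NF-kB luciferase reporter; cells exposed to compound for about 14 hours before viability readout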
[7] = Luminescence Cell-Based Dose Retest to Confirm Inhibitors of Cancer Stem Cells. [Related pubchem assays (depositor defined):AID2717, AID2721]; assay type: functional; conditions: Homo sapiens

Question: With `CC(/C=C1\SC(=S)N(NC(=O)c2ccc(C)cc2)C1=O)=C\c1ccccc1` as the compound, how does the IC50 [1] read?
Answer: 20.6 µM (not active)

Question: And the IC50 [2]?
Answer: > 35 µM (not active)

Question: Which IC50 [1] does the source give for `CCCCCCNS(=O)(=O)c1ccc(NC(=O)C2CCCO2)cc1` (stereo unspecified) here?
Answer: 7.94 µM (active)

Question: What about the IC50 [2] of the same compound?
Answer: 13.7 µM (not active)

Question: Which IC50 (Aspartyl aminopeptidase) does the source give for `O=C(/C=C/c1ccccc1)Nn1cnnc1` here?
Answer: 1.76 µM (active)

Question: What about the IC50 (Procathepsin L) of the same compound?
Answer: > 59.6 µM (not active)

Question: What about the IC50 (Protein skinhead-1) of the same compound?
Answer: > 100 µM (inactive)

Question: With `O=C(CNC(=O)c1ccccc1)NCCc1ccc(O)c(O)c1` as the compound, how does the IC50 (Aspartyl aminopeptidase) read?
Answer: 1.81 µM (active)

Question: What about the IC50 (Procathepsin L) of the same compound?
Answer: > 59.6 µM (not active)

Question: With `Cc1ccc(S(=O)(=O)c2c(C)nn(C(C)(C)C)c2OC(=O)C2CCCC2)cc1` as the compound, how does the EC50 (Ion channel NompC) read?
Answer: > 29.9 µM (not active)

Question: And the EC50 (Mucolipin-3)?
Answer: > 29.9 µM (not active)

Question: Which EC50 (Ion channel NompC) does the source give for `COc1ccc(S(=O)(=O)N2CCCCCC2)cc1N(C)S(=O)(=O)c1ccccc1` here?
Answer: > 29.9 µM (not active)

Question: And the EC50 (Mucolipin-3)?
Answer: 3.92 µM (active)

Question: With `CCOC(=O)c1cc2c(s1)-c1c(C)cccc1OC2` as the compound, how does the EC50 [3] read?
Answer: 7.26 µM (active)

Question: What about the AC50 [4] of the same compound?
Answer: 0.443 µM (active)

Question: And the EC50 (H4)?
Answer: 30.9 µM (active)

Question: What about the EC50 [5] of the same compound?
Answer: 39.8 µM (active)

Question: For `COC(=O)c1ccc(NC(=S)N2CCCC2)cc1`, which AC50 [4] is on record?
Answer: 10.3 µM (active)

Question: Which IC50 [6] does the source give for `N=c1ccn(Cc2c(Cl)cccc2Cl)cc1` here?
Answer: > 80 µM (inactive)

Question: For `O=C(C=Cc1ccco1)c1cc(Cl)ccc1O`, which AC50 [4] is on record?
Answer: 21.6 µM (active)

Question: With `COc1ccc(/C=N/NC(=O)CN(CCc2ccccc2)S(=O)(=O)c2ccc(NC(C)=O)cc2)cc1OC` as the compound, how does the IC50 [1] read?
Answer: 3.55 µM (active)

Question: And the IC50 [2]?
Answer: 10.4 µM (not active)

Question: With `COc1cc(Br)cc(/C=N/c2nc[nH]n2)c1O` as the compound, how does the IC50 (Aspartyl aminopeptidase) read?
Answer: 2.35 µM (active)

Question: What about the IC50 (Procathepsin L) of the same compound?
Answer: > 59.6 µM (not active)

Question: For `CCc1ccc2[nH]c3nc(N/N=C/c4cccc(O)c4)nnc3c2c1`, which IC50 [6] is on record?
Answer: > 80 µM (inactive)

Question: What about the AC50 [7] of the same compound?
Answer: < 0.16 µM (active)
